From patent US5478929A, “Bioconversion products of 27-hydroxy avermectin” (Merck & Co., Inc., priority 1994, dated 1995)

How the values were obtained:
Type in all cases: in vivo
[1] = test system: Trichostrongylus colubriformis; experiment: Anthelmintic activity against Trichostrongylus colubriformis; details: Table 4
[2] = test system: Trichostrongylus sigmodontis; experiment: Anthelmintic activity against Trichostrongylus sigmodontis (large bowel worm); details: for Activity profile, Trichostrongulus sigmodontis: Table 4; for Anthelmintic activity, Trichostrongylus sigmodontis: Table 2; as to Anthelmintic activity, Trichostrongylus sigmodontis: key: A*: highly active; M: moderately active; I: inactive
Description: The anthelmintic activity of the instant compound may be determined by orally administering via the feed, a sample of the individual compound, a mixture of such compound, a concentrated extract, and the like to a mouse which had been infected 3 days earlier with a gastrointestinal parasite. At 11, 12 and 13 days after the initiation of the medication, the feces of the mouse are examined for eggs, and on the next day the mouse is sacrificed and the number of worms present in the proximal portion of the small intestine are determined. An active compound is observed when there is a significant reduction of egg and worm counts when compared to infected, unmedicated controls.

Haemonchus contortus = experiment: Anthelmintic activity against Haemonchus contortus; details: for Activity profile, Haemonchus Contortus: Table 4
Lucilla larva = experiment: Insecticidal activity, Lucilla larva; details: for Insecticidal activity, Lucilla larva 48 hrs: listed as 27-OH ivermectins Isomer B; as to all read-outs here: key: A*: highly active; M: moderately active; I: inactive

Compound | Activity profile, Trichostrongulus colubriformis ([1]; 0.0625 mg/kg) | Activity profile, Trichostrongulus colubriformis ([1]; 0.125 mg/kg) | Activity profile, Trichostrongulus colubriformis ([1]; 0.25 mg/kg) | Activity profile, Trichostrongulus sigmodontis ([2]; 0.0625 mg/kg) | Activity profile, Trichostrongulus sigmodontis ([2]; 0.125 mg/kg) | Activity profile, Trichostrongulus sigmodontis ([2]; 0.25 mg/kg) | Activity profile, Haemonchus Contortus (Haemonchus contortus; 0.0625 mg/kg) | Activity profile, Haemonchus Contortus (Haemonchus contortus; 0.125 mg/kg) | Activity profile, Haemonchus Contortus (Haemonchus contortus; 0.25 mg/kg) | Activity profile, Trichostrongulus colubriformis ([1]; 1.00 mg/kg) | Activity profile, Trichostrongulus sigmodontis ([2]; 1.00 mg/kg) | Activity profile, Haemonchus Contortus (Haemonchus contortus; 1.00 mg/kg) | Insecticidal activity, Lucilla larva 24 hrs (Lucilla larva; 0.5 ppm) | Insecticidal activity, Lucilla larva 24 hrs (Lucilla larva; 1 ppm) | Anthelmintic activity, Trichostrongylus sigmodontis ([2]; 0.0625 mg/kg) | Insecticidal activity, Lucilla larva 48 hrs (Lucilla larva; 0.5 ppm) | Insecticidal activity, Lucilla larva 48 hrs (Lucilla larva; 1 ppm) | Anthelmintic activity, Trichostrongylus sigmodontis ([2]; 0.125 mg/kg, listed as 27-OH ivermectins Isomer B) | Anthelmintic activity, Trichostrongylus sigmodontis ([2]; 0.25 mg/kg, listed as 27-OH ivermectins Isomer B) | Anthelmintic activity, Haemonchus contortus (Haemonchus contortus; Table 2, 0.0625 mg/kg, listed as 27-OH ivermectins Isomer B)
4"-O-glucosyl, 27-OH -22,23 dihydro B1a isomer A [4"-O-glucosyl, 27-OH-22,23 dihydro B1a isomer A] | SLA (35-60% effective) | A (85-100% effective) | A (85-100% effective) | A (85-100% effective) | A (85-100% effective) | A (85-100% effective) | MA (60-85% effective) | A (85-100% effective) | A (85-100% effective) |  |  |  |  |  |  |  |  |  |  | 
4"-O-glucosyl, 27-OH B1a [4"-O-glucosyl, 27-OH B1a isomer B] | I | A (85-100% effective) | A (85-100% effective) | A (85-100% effective) | A (85-100% effective) | A (85-100% effective) | I | A (85-100% effective) | A (85-100% effective) |  |  |  |  |  |  |  |  |  |  | 
4"-O-glucosyl, 27-OH-22,23 dihydro B 1 a isomer B [4"-O-glucosyl, 27-OH-22,23 dihydro B1a isomer B] | SLA (35-60% effective) | MA (60-85% effective) | A (85-100% effective) | A (85-100% effective) | A (85-100% effective) | A (85-100% effective) | I | MA (60-85% effective) | A (85-100% effective) |  |  |  |  |  |  |  |  |  |  | 
CC1=C[C@H]2C(=O)O[C@H]3C[C@@H](C/C=C(\C)[C@@H](O)[C@@H](C)/C=C/C=C4\CO[C@H]([C@@H]1O)[C@@]42O)O[C@@]1(CC[C@H](C)[C@@H]([C@@H](C)C(C)O)O1)C3 (single isomer, unassigned) [27-OH-22,23 dihydro B1a aglycone isomer A, 27-hydroxy ivermectin aglycone] |  |  |  |  |  |  |  |  |  | I | I | I |  |  |  |  |  |  |  | 
CC1=C[C@H]2C(=O)O[C@H]3C[C@@H](C/C=C(\C)[C@@H](O)[C@@H](C)/C=C/C=C4\CO[C@H]([C@@H]1O)[C@@]42O)O[C@@]1(CC[C@H](C)[C@@H]([C@@H](C)C(C)O)O1)C3 (single isomer, unassigned) [27-OH-22,23 dihydro B1a aglycone isomer B, 27-hydroxy ivermectin aglycone] |  |  |  |  |  |  |  |  |  | I | I | I |  |  |  |  |  |  |  | 
CO[C@H]1C[C@H](O[C@H]2[C@H](C)O[C@@H](O[C@@H]3/C(C)=C/C[C@@H]4C[C@@H](C[C@]5(CC[C@H](C)[C@@H]([C@@H](C)C(C)O)O5)O4)OC(=O)[C@@H]4C=C(C)[C@@H](O)[C@H]5OC/C(=C\C=C\[C@@H]3C)[C@]54O)C[C@@H]2OC)O[C@@H](C)[C@@H]1O (single isomer, unassigned) [27-OH-22,23 dihydro B1a isomer A, 27-OH 22,23 dihydroavermectin B la] | A (85-100% effective) | A (85-100% effective) | A (85-100% effective) | I | A (85-100% effective) | A (85-100% effective) | A (85-100% effective) | A (85-100% effective) | A (85-100% effective) |  |  |  | I | I | I |  |  |  |  | 
CO[C@H]1C[C@H](O[C@H]2[C@H](C)O[C@@H](O[C@@H]3/C(C)=C/C[C@@H]4C[C@@H](C[C@]5(CC[C@H](C)[C@@H]([C@@H](C)C(C)O)O5)O4)OC(=O)[C@@H]4C=C(C)[C@@H](O)[C@H]5OC/C(=C\C=C\[C@@H]3C)[C@]54O)C[C@@H]2OC)O[C@@H](C)[C@@H]1O (single isomer, unassigned) [27-OH-22,23 dihydro B1a isomer B, 27-OH 22,23 dihydroavermectin B la] | I | A (85-100% effective) | A (85-100% effective) | I | I | I | MA (60-85% effective) | A (85-100% effective) | A (85-100% effective) |  |  |  | I | I | I | I | I | I | I | I
CO[C@H]1C[C@H](O[C@H]2[C@H](C)O[C@@H](O[C@@H]3/C(C)=C/C[C@@H]4C[C@@H](C[C@]5(C=C[C@H](C)[C@@H]([C@@H](C)C(C)O)O5)O4)OC(=O)[C@@H]4C=C(C)[C@@H](O)[C@H]5OC/C(=C\C=C\[C@@H]3C)[C@]54O)C[C@@H]2OC)O[C@@H](C)[C@@H]1O (single isomer, unassigned) [27-OHB1a isomer B, 27-OHB1a] | A (85-100% effective) | A (85-100% effective) | A (85-100% effective) |  |  | SLA (35-60% effective) | A (85-100% effective) | A (85-100% effective) | A (85-100% effective) |  |  |  |  |  |  |  |  |  |  | 
CC[C@H](C)[C@H]1O[C@]2(CC[C@@H]1C)C[C@@H]1C[C@@H](C/C=C(\C)[C@@H](O[C@H]3C[C@H](OC)[C@@H](O[C@H]4C[C@H](OC)[C@@H](O)[C@H](C)O4)[C@H](C)O3)[C@@H](C)/C=C/C=C3\CO[C@@H]4[C@H](O)C(C)=C[C@@H](C(=O)O1)[C@]34O)O2 [22,23 dihydro 8 B1a, 22,23 dihydro B1a, reference compound] | A (85-100% effective) | A (85-100% effective) | A (85-100% effective) | I | A (85-100% effective) | A (85-100% effective) | A (85-100% effective) | A (85-100% effective) | A (85-100% effective) |  |  |  |  |  |  |  |  |  |  | 
CC[C@H](C)[C@H]1O[C@]2(C=C[C@@H]1C)C[C@@H]1C[C@@H](C/C=C(\C)[C@@H](O[C@H]3C[C@H](OC)[C@@H](O[C@H]4C[C@H](OC)[C@@H](O)[C@H](C)O4)[C@H](C)O3)[C@@H](C)/C=C/C=C3\CO[C@@H]4[C@H](O)C(C)=C[C@@H](C(=O)O1)[C@]34O)O2 [B1a, avermectin B1a, reference compound] | A (85-100% effective) | A (85-100% effective) | A (85-100% effective) | SLA (35-60% effective) | A (85-100% effective) | A (85-100% effective) | A (85-100% effective) | A (85-100% effective) | A (85-100% effective) |  |  |  |  |  |  |  |  |  |  | 
